In PubChem BioAssay (NCI):
“And” between values parts separate entries of the source, which are not always exact repeats. Identical values can stand only once.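 Tested at 5 concentrations; 48 h exposure; 96-well plates; endpoints linearly interpolated, else capped at highest concentration. GI50 is the concentration that inhibits growth by half. TGI: concentration producing complete growth inhibition.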

Tests used:
Assay in all cases: DTP human tumour cell line panel, 48 h
HL-60(TB) leukemia = tested on: HL-60(TB) leukemia
HOP-92 NSCLC = tested on: HOP-92 NSCLC
NCI-H23 lung = tested on: NCI-H23 lung
OVCAR-3 ovarian = tested on: OVCAR-3 ovarian
OVCAR-4 ovarian = tested on: OVCAR-4 ovarian
SR leukemia = tested on: SR leukemia
SW-620 colon = tested on: SW-620 colon
TK-10 renal = tested on: TK-10 renal
DMS 273 small cell lung = tested on: DMS 273 small cell lung
DMS 114 small cell lung = tested on: DMS 114 small cell lung

Compound | GI50 (HL-60(TB) leukemia) | GI50 (HOP-92 NSCLC) | TGI (HOP-92 NSCLC) | GI50 (NCI-H23 lung) | TGI (NCI-H23 lung) | GI50 (OVCAR-3 ovarian) | TGI (OVCAR-3 ovarian) | GI50 (OVCAR-4 ovarian) | TGI (OVCAR-4 ovarian) | GI50 (SR leukemia) | TGI (SR leukemia) | GI50 (SW-620 colon) | TGI (SW-620 colon) | GI50 (TK-10 renal) | TGI (TK-10 renal) | TGI (HL-60(TB) leukemia) | TGI (DMS 273 small cell lung) [µM] | TGI (DMS 114 small cell lung) [µM]
Nc1ccn(C2OC(CO)C(O)C2F)c(=O)n1 (stereo not given) | 189 µM | > 5000 µM | > 5000 µM | > 5000 µM | > 5000 µM | > 5000 µM | > 5000 µM | > 5000 µM | > 5000 µM | 412 µM and 2500 µM | > 5000 µM | > 5000 µM | > 5000 µM | > 5000 µM | > 5000 µM |  |  | 
CN(C)CCCOc1ccccc1NC1=C(Cl)C(=O)C(Nc2ccccc2OCCCN(C)C)=C(Cl)C1=O | 0.244 µM | 1.33 µM | 2.82 µM | 0.57 µM | 1.38 µM | 0.172 µM | 0.319 µM | 0.136 µM | 0.265 µM | 0.837 µM | 5.47 µM | 0.207 µM | 0.415 µM | 1.93 µM | 3.36 µM | 0.656 µM |  | 
COC1=CC(c2ccc[nH]2)=N/C1=C\c1[nH]c(C)c(C(=O)OCc2ccccc2)c1C | 0.328 µM | 0.0671 µM | 0.431 µM | 0.141 µM | 1.74 µM | 0.0621 µM | 0.645 µM | 0.0756 µM | 5.71 µM | 0.0405 µM | 0.885 µM | 0.0346 µM | 1.21 µM | 0.0854 µM | 1.91 µM | 20.2 µM |  | 
COc1ccc(S(=O)(=O)NC(C)C(=O)O)cc1 (stereo not given) |  |  | > 100 µM |  | > 100 µM |  | > 100 µM |  | > 100 µM |  |  |  | > 100 µM |  | > 100 µM | > 100 µM | > 100 | 
CC(C)[C@](O)(c1ccc2cc(OC(F)F)c(OC(F)F)cc2c1)c1cn[nH]n1 | 26.8 µM and 25 µM | 13.6 µM and 13.5 µM | 32.2 µM and 29.3 µM | 16.8 µM and 15.8 µM | 40.1 µM and 35.2 µM | 18.7 µM and 14 µM | 36.6 µM and 29.1 µM | 21.9 µM and 15 µM | > 100 µM and 54.4 µM | 24.7 µM and 12.1 µM | 56.7 µM and 44.9 µM | 21 µM and 18.5 µM | 44.9 µM and 38.5 µM | 17 µM and 12.6 µM | 38.4 µM and 35.7 µM | 68.5 µM and 75.7 µM |  | 
Cc1ccc(C)c(NC(=O)C(=O)CC(=O)C2CCOC2=O)c1 (stereo not given) |  |  | > 100 µM |  | > 100 µM |  | > 100 µM |  | > 100 µM |  |  |  | > 100 µM |  | > 100 µM | > 100 µM | > 100 | > 100
CCC1(C)NN=c2s/c(=C/c3ccc(OC)cc3)c(=O)n2N1 (stereo not given) |  |  | 96.3 µM |  | > 100 µM |  | > 100 µM |  | > 100 µM |  | > 100 µM |  | > 100 µM |  | > 100 µM |  | > 100 | 
N#C/C(=C\c1ccccc1O)C(N)=O |  |  | > 100 µM |  | > 100 µM |  | > 100 µM |  | > 100 µM |  |  |  | > 100 µM |  | > 100 µM | 43.3 µM | > 100 | > 100
C[n+]1c(/C=C\C=C\N2CCCCC2)sc2ccccc21 | 0.166 µM | 0.0758 µM | 2.16 µM | 0.367 µM | 18.3 µM | 0.243 µM | 5.81 µM | 0.479 µM | > 42.4 µM | 0.105 µM | 3.08 µM | 0.513 µM | 14.9 µM | 2.19 µM | 16.5 µM | 0.737 µM |  | 
COC(=O)Cc1cc(OC)c(OC)cc1Br |  |  | > 100 µM |  | > 100 µM |  | > 100 µM |  | > 100 µM |  | > 100 µM |  | > 100 µM |  | > 100 µM | > 100 µM |  | > 100
CO[C@H](C(=O)[C@@H](O)[C@@H](C)O)[C@@H]1Cc2cc3cc(O[C@H]4C[C@@H](O[C@H]5C[C@@H](O)[C@H](O)C(C)O5)[C@H](O)C(C)O4)c(C)c(O)c3c(O)c2C(=O)[C@H]1O[C@H]1C[C@@H](O[C@H]2C[C@@H](O[C@H]3C[C@@H](OC)[C@H](O)C(C)O3)[C@@H](O)C(C)O2)C(O)(O)C(C)O1 (stereo not given in full) | 2.94 µM | 0.103 µM | > 6.49 µM | 0.176 µM | 4.22 µM | 0.24 µM | 7.23 µM | 0.404 µM | > 11.7 µM | 0.0932 µM | > 25 µM | 0.164 µM | > 25 µM | 0.15 µM | > 24.1 µM | > 25 µM |  | 
CC(=O)N1CCN(C2=Nc3ccccc3CO2)C1=S | 59.7 µM | 34 µM | > 100 µM | > 100 µM | > 100 µM | 51.6 µM | > 100 µM | 65.3 µM | > 100 µM | 29.3 µM | 68.4 µM | 92.5 µM | > 100 µM | > 100 µM | > 100 µM | > 100 µM |  | 
Cc1c2cc[nH]c(=O)c2c(C)c2c1[nH]c1cc(OCCN3CCN(C)CC3)ccc12 | 1.44 µM | 0.798 µM | 5.46 µM | 0.833 µM | 3.67 µM | 1.24 µM | 7.7 µM | 1.17 µM | 4.82 µM | 0.314 µM | 12 µM | 0.381 µM | 2.48 µM | 2.73 µM | 13.7 µM | 4.36 µM |  | 
O=C(CC1=Nc2nnc(-c3nnc4n3C(=O)C(CC(=O)c3cccnc3)=N4)n2C1=O)c1cccnc1 |  |  | > 100 µM |  | > 100 µM |  | > 100 µM |  | > 100 µM |  |  |  | > 100 µM |  | > 100 µM | > 100 µM | > 100 | > 100
N#Cc1cccc(N2C(=O)c3c(c(-c4ccccc4)c(-c4ccc(Sc5ccc(-c6c(-c7ccccc7)c7c(c(-c8ccccc8)c6-c6ccccc6)C(=O)N(c6cccc(C#N)c6)C7=O)cc5)cc4)c(-c4ccccc4)c3-c3ccccc3)C2=O)c1 |  |  | 99.4 µM |  | > 100 µM |  | > 100 µM |  | > 100 µM |  |  |  | > 100 µM |  | > 100 µM | > 100 µM | > 100 | > 100
Cc1cccc(C(=O)c2cccc3ccccc23)c1C(=O)O |  |  | > 100 µM |  | > 100 µM |  | > 100 µM |  | > 100 µM |  |  |  | > 100 µM |  | > 100 µM |  | > 100 | 13.8
N#Cc1cc(C#N)c(Cl)nc1N |  |  | > 10 µM |  | > 10 µM |  | > 10 µM |  | > 10 µM |  | > 10 µM |  | > 10 µM |  | > 10 µM | > 10 µM |  | 
CCCN(CCC)CCCNCc1cc(I)cc(C)c1O | 13.8 µM | 5.04 µM | 18.6 µM | 15.2 µM | 33.5 µM | 14.8 µM | 27.9 µM | 17.9 µM | 37.8 µM | 7.18 µM | 21.2 µM | 14.3 µM | 27.4 µM | 16.1 µM | 30.6 µM | 29.8 µM |  | 
